According to paper PMC4865847, “Putative histidine kinase inhibitors with antibacterial effect against multi-drug resistant clinical isolates identified by in vitro and in silico screens” (Scientific Reports, 2016):
In brackets after ≈: the same amount, converted by molar mass. Like-named read-outs stand apart in the source and are kept apart here.

Legend:
[1] = test system: Acinetobacter baumannii; test: Antibacterial susceptibility testing (MIC), A. baumannii; type: cell-based
Procedure, shortened: (§1)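 Susceptibility is given as MIC by the standard double-dilution method, defined as no visible growth. For S. pneumoniae, conditions were anaerobic with Todd Hewitt yeast extract plus 200 U/mL catalase.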

[2] = target: T1, E. coli PhoR (PhoR^E) (Escherichia coli, UniProt P08400); test: Aggregation analysis by native-PAGE, PhoR^E; details: 2 mM (S5 and S6 5 mM), 10% DMSO
T1 construct: The catalytic portion (DHp and CA domain) of E. coli PhoR (PhoR^E); made in house; host or cells: E. coli RIL
Procedure: (§2) E. coli PhoR and EnvZ, and S. aureus PhoR ([…], final concentration) were prepared in kinase buffer. […] DMSO in the assays was maintained to a final concentration 10% (v/v). After 30 min of incubation at room temperature Native polyacrylamide gel electrophoresis (Native-PAGE) loading buffer was added and samples loaded. Coomassie blue staining was used for protein visualization.

[3] = test system: Staphylococcus epidermidis; test: Antibacterial susceptibility testing (MIC/MBC), S. epidermidis; type: cell-based; details: for MBC / MIC: Staphylococcus epidermidis
Procedure: (§3) Minimal inhibitory concentrations (MICs) were determined following a standard double-dilution method. […] For S. pneumoniae MICs were determined by adapting the standard double-dilution method to anaerobic conditions and of this microorganism (use of Todd Hewitt Yeast extract with 200 U/mL of catalase and continuous monitoring of growth).

[4] = test system: Klebsiella pneumoniae; test: Antibacterial susceptibility testing (MIC), K. pneumoniae; type: cell-based; details: for MIC: Klebsiella pneumoniae, ATCC700603, strain ATCC 700603
Procedure, shortened: as §1

[5] = Solubility in kinase buffer; type: physicochemical; details: kinase buffer in the presence of 10% DMSO
[6] = Hemolysis assay; type: cell-based; details: human
Procedure: Hemolytic activity against human erythrocytes taken from a healthy donor was measured as previously described. The hemolysis experiments were carried out in accordance with the guidelines of the United Arab Emirates University (UAEU) Research Ethics Review Board. All experimental protocols were approved by the Research Ethics Review Board of UAEU and informed consent was obtained from all donors.

[7] = test system: Stenotrophomonas maltophilia; test: Antibacterial susceptibility testing (MIC), S. maltophilia; type: cell-based
Procedure, shortened: as §1

[8] = test system: Streptococcus suis; test: Antibacterial susceptibility testing (MIC), S. suis; type: cell-based; details: Streptococcus suis, read-out: MIC Streptococcus suis 3881/S10, strain 3881/S10
Procedure, shortened: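 MICs were determined by standard double (two-fold) dilution and read as the lowest compound concentration with no visible growth. MBC was the lowest concentration giving no colonies on plating, or no growth on regrowth in fresh MH medium. For S. pneumoniae the method was adapted to anaerobic conditions in Todd Hewitt yeast extract with 200 U/mL catalase, with growth monitored continuously.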

[9] = target: T2, S. aureus PhoR (PhoR^S) (Staphylococcus aureus, UniProt Q2FXN7); test: Aggregation analysis by native-PAGE, PhoR^S; details: 2 mM (S5 and S6 5 mM), 10% DMSO
Procedure: as §2

[10] = test system: Pseudomonas aeruginosa; test: Antibacterial susceptibility testing (MIC), P. aeruginosa; type: cell-based; details: strain ATCC 27853; for MIC: Pseudomonas aeruginosa, ATCC27853
Procedure, shortened: as §1

[11] = test system: Staphylococcus aureus; test: Antibacterial susceptibility testing (MIC/MBC), S. aureus; type: cell-based; details: for MIC / MBC: Staphylococcus aureus; for MBC: read-out: MBC S. aureus DSM 20231
Procedure: as §3

[12] = test system: Escherichia coli; test: Antibacterial susceptibility testing (MIC/MBC), E. coli; type: cell-based; details: Escherichia coli
Procedure: as §3

[13] = target: T2, S. aureus PhoR (PhoR^S); test: In vitro autophosphorylation kinase assay with γ-32P-ATP, PhoR^S; type: biochemical
Procedure, shortened: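 ≈4 μM HK incubated with up to 20 mM fragment in 50 mM Tris HCl pH 8.5, 50 mM KCl, 5 mM MgCl2, 0.5 mM EDTA, 0.1 mM DTT; started with γ-32P-ATP (0.03–0.06 μM ATP final). Quenched with SDS sample buffer/EDTA, run on SDS-PAGE unheated, phosphoprotein quantified by phosphor-imaging.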

[14] = test system: Streptococcus pneumoniae; test: Antibacterial susceptibility testing (MIC), S. pneumoniae; type: cell-based; details: strain 49619
Procedure: Bacterial strains used in this study for antibacterial susceptibility testing (Table S5) were propagated using standard microbiological procedures. Minimal inhibitory concentrations (MICs) were determined following a standard double-dilution method. MICs were recorded as the lowest concentration of the compound where no visible growth was observed. After plating the dilutions around the MIC or growing them in fresh MH media, minimal bactericidal concentration (MBC) was recorded as the lowest concentration of the compound at which no colonies were formed or no growth was observed, respectively. For S. pneumoniae MICs were determined by adapting the standard double-dilution method to anaerobic conditions and of this microorganism (use of Todd Hewitt Yeast extract with 200 U/mL of catalase and continuous monitoring of growth).

[15] = MDR clinical isolate NM8, read-out: MIC A. baumannii NM8
[16] = DSM20044, strain DSM 20044, read-out: MIC S. epidermidis DSM 20044
[17] = clinical isolate T7/3, read-out: MIC S. epidermidis T7/3
[18] = clinical isolate T37/8, read-out: MIC S. epidermidis T37/8
[19] = clinical isolate T6119, read-out: MIC S. epidermidis T6119
[20] = strain RP62A (biofilm producer), read-out: MIC S. epidermidis RP62A
[21] = strain RP62A/1 (non-biofilm producer), read-out: MIC S. epidermidis RP62A/1
[22] = summary over clinical isolates, read-out: MICs for S. epidermidis clinical isolates
[23] = clinical isolate B32/1, read-out: MIC S. maltophilia B32/1
[24] = ATCC reference strain 25293, read-out: MIC S. aureus 25293
[25] = DSM20231, strain DSM 20231, read-out: MIC S. aureus DSM 20231
[26] = MRSA clinical isolate 145/08, read-out: MIC S. aureus 145/08
[27] = MRSA clinical isolate 274/08, read-out: MIC S. aureus 274/08
[28] = MRSA, MRSA clinical isolate T4/6, read-out: MIC S. aureus T4/6
[29] = MRSA, MRSA clinical isolate V4180, read-out: MIC S. aureus V4180
[30] = ATCC25276, strain ATCC 25276, read-out: MIC E. coli ATCC 25276
[31] = strain CFT 073, read-out: MIC E. coli CFT 073

T2 sequence (Q2FXN7 entry or part of it): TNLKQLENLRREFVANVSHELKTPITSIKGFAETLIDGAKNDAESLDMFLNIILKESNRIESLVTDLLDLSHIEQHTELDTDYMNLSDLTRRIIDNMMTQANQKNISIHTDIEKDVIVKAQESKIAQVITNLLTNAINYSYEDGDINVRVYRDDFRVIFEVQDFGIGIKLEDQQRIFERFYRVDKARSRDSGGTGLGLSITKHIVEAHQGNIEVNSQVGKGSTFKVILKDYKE
T1 sequence (P08400 210-425): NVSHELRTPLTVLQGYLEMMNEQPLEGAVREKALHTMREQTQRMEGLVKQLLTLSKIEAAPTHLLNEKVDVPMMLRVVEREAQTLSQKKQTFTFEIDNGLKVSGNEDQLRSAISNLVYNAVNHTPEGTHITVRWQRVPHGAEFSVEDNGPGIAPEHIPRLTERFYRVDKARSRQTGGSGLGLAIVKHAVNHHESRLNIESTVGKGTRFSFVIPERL

SMILES: Nc1nc(-c2ccc(Br)cc2)cs1 [F1, 4-(4-bromophenyl)-1,3-thiazol-2-amine]
- MIC [1, 15]: > 500 µg/mL
- HK aggregation, PhoR^E [2]: do not cause HK aggregation
- MBC ([3]; DSM20044, strain DSM 20044): 250 µg/mL (≈ 980 µM)
- MIC [3, 16]: 4 µg/mL (≈ 15.7 µM)
- MIC [3, 17]: 63 µg/mL (≈ 247 µM)
- MIC [3, 18]: > 500 µg/mL
- MIC [3, 19]: > 500 µg/mL
- MIC [3, 20]: > 500 µg/mL
- MIC [3, 21]: 250 µg/mL (≈ 980 µM)
- MIC [3, 22]: 63 µg/mL (≈ 247 µM)
- MIC [4]: > 500 µg/mL
- solubility in kinase buffer [5]: limited solubility
- HC50 [6]: > 500 µg/mL
- MIC [7, 23]: > 500 µg/mL
- MIC [8]: > 500 µg/mL
- HK aggregation, PhoR^S [9]: do not cause HK aggregation
- MIC [10]: > 500 µg/mL
- MIC [11, 24]: 125 µg/mL (≈ 490 µM)
- MBC ([11]; DSM20231, strain DSM 20231): > 500 µg/mL
- MIC [11, 25]: 25 µg/mL (≈ 98 µM)
- MIC [11, 26]: 125 µg/mL (≈ 490 µM)
- MIC [11, 27]: 125 µg/mL (≈ 490 µM)
- MIC [11, 28]: 125 µg/mL (≈ 490 µM)
- MIC [11, 29]: 125 µg/mL (≈ 490 µM)
- MIC ([11]; MRSA, summary over strains, read-out: MICs for the MRSA strains and S. aureus 25293): 125 to 500 µg/mL (≈ 490 to 1960 µM)
- MIC [12, 30]: > 500 µg/mL
- MIC [12, 31]: > 500 µg/mL

SMILES: CC[C@H](c1ccc(O)cc1)[C@@H](CC)c1ccc(F)cc1 [S1.13, 4-[(3S,4R)-4-(4-fluorophenyl)hexan-3-yl]phenol]
- MIC [1, 15]: > 500 µg/mL
- MIC ([1]; MDR clinical isolate NM35, read-out: MIC A. baumannii NM35): > 500 µg/mL
- MIC ([1]; MDR clinical isolate NM75, read-out: MIC A. baumannii NM75): > 500 µg/mL
- MIC ([1]; MDR clinical isolate NM109, read-out: MIC A. baumannii NM109): > 500 µg/mL
- MIC ([1]; MDR clinical isolate NM124, read-out: MIC A. baumannii NM124): > 500 µg/mL
- IC50 ([13]; IC50 PhoR^S, autophosphorylation, one time point (30 sec), 10% DMSO): 212 µM
- inhibition at 2000 µM ([13]; read-out: inhibition of PhoR^S autophosphorylation): > 75%
- HK aggregation, PhoR^E [2]: do not cause HK aggregation
- MBC ([3]; DSM20044, strain DSM 20044): 8 µg/mL (≈ 29.4 µM)
- MIC [3, 16]: 1 µg/mL (≈ 3.67 µM)
- MIC [3, 17]: 8 µg/mL (≈ 29.4 µM)
- MIC [3, 18]: 16 µg/mL (≈ 58.7 µM)
- MIC [3, 19]: 8 µg/mL (≈ 29.4 µM)
- MIC [3, 20]: 8 µg/mL (≈ 29.4 µM)
- MIC [3, 21]: 8 µg/mL (≈ 29.4 µM)
- MIC [3, 22]: 8 to 16 µg/mL (≈ 29.4 to 58.7 µM)
- MIC S. epidermidis DSM 20044 ([3]; strain DSM 20044): 1^¥ μg/ml
- bacteriostatic or bactericidal for S. epidermidis DSM 20044 ([3]; strain DSM 20044): bactericidal
- MIC [4]: > 500 µg/mL
- MIC K. pneumoniae ATCC700603 ([4]; strain ATCC 700603): >500 µg/mL
- MIC [14]: 16 µg/mL (≈ 58.7 µM)
- solubility in kinase buffer [5]: good solubility
- HC50 [6]: 277 µg/mL
- MIC ([7]; clinical isolate B5/5, read-out: MIC S. maltophilia B5/5): > 500 µg/mL
- MIC ([7]; clinical isolate B6/2, read-out: MIC S. maltophilia B6/2): > 500 µg/mL
- MIC [7, 23]: > 500 µg/mL
- MIC [8]: 8 µg/mL (≈ 29.4 µM)
- HK aggregation, PhoR^S [9]: do not cause HK aggregation
- MIC [10]: > 500 µg/mL
- MIC P. aeruginosa ATCC 27853 [10]: >500 µg/mL
- MIC [11, 24]: 8 µg/mL (≈ 29.4 µM)
- MBC ([11]; DSM20231, strain DSM 20231): 33 µg/mL (≈ 121 µM)
- MIC [11, 25]: 8 µg/mL (≈ 29.4 µM)
- MIC ([11]; MRSA clinical isolate 127/08, read-out: MIC S. aureus 127/08): 16 µg/mL (≈ 58.7 µM)
- MIC [11, 26]: 8 µg/mL (≈ 29.4 µM)
- MIC [11, 27]: 16 µg/mL (≈ 58.7 µM)
- MIC ([11]; MRSA, MRSA clinical isolate S908, read-out: MIC S. aureus S908): 16 µg/mL (≈ 58.7 µM)
- MIC [11, 28]: 8 µg/mL (≈ 29.4 µM)
- MIC [11, 29]: 8 µg/mL (≈ 29.4 µM)
- MIC ([11]; MRSA, summary over strains, read-out: MICs for the S. aureus reference strains and the MRSA strains): 8 to 16 µg/mL (≈ 29.4 to 58.7 µM)
- MIC ([11]; MRSA, summary over susceptible MRSA clinical isolates, read-out: MICs for MRSA strains): 8 to 16 µg/mL (≈ 29.4 to 58.7 µM)
- MBC S. aureus DSM 20231 ([11]; strain DSM 20231): 31 µg/mL (≈ 114 µM)
- MIC S. aureus DSM 20231 ([11]; strain DSM 20231): 8^¥ μg/ml
- bacteriostatic or bactericidal for S. aureus DSM 20231 ([11]; strain DSM 20231): bactericidal
- MIC [12, 30]: > 500 µg/mL
- MIC [12, 31]: > 500 µg/mL
